From publication PMC10294832, “Investigation of Naphthyl–Polyamine Conjugates as Antimicrobials and Antibiotic Enhancers” (Antibiotics, 2023)
Where “and” joins values, the source holds several entries; their conditions need not be identical. Equal entries are not always repeated.

Key:
[1] = tested on: S. aureus (ATCC 25,923 or ATCC 29213); assay: Antimicrobial MIC, S. aureus; type: cell-based, Staphylococcus aureus; details: Staphylococcus aureus, mean (n = 3)
Procedure: (§1) The susceptibility of bacterial strains S. aureus (ATCC 25,923 or 29213), E. coli (ATCC 25922), and P. aeruginosa (ATCC 27853) to antibiotics and compounds was determined according to previously reported protocols. Additional antimicrobial evaluation against MRSA (ATCC 43300), Klebsiella pneumoniae (ATCC 700603), Acinetobacter baumannii (ATCC 19606), Candida albicans (ATCC 90028), and Cryptococcus neoformans (ATCC 208821) was undertaken at the Community for Open Antimicrobial Drug Discovery at The University of Queensland (Australia) according to their standard protocols as reported previously.

C. albicans (ATCC 90028) = assay: Antifungal MIC, C. albicans; type: cell-based; details: Candida albicans, ATCC90028, mean (n = 2)
Procedure: as §1

[2] = tested on: P. aeruginosa (ATCC 27853); assay: Enhancement of doxycycline activity; type: cell-based, Pseudomonas aeruginosa; details: for Dox/P.a: concentration required to restore doxycycline activity (combination MIC): doxycycline fixed at 4.5 µM (2 µg/mL), P. aeruginosa (ATCC 27853); for Dox/P.a fold change: ratio between intrinsic MIC of test compound and combination MIC, doxycycline 4.5 µM, P. aeruginosa
[3] = tested on: P. aeruginosa (PAO1 or ATCC 27853); assay: Antimicrobial MIC, P. aeruginosa; type: cell-based; details: Pseudomonas aeruginosa; P. aeruginosa (PAO1 or ATCC 27853); mean (n = 3); read-out: MIC P. a
Procedure: as §1

[4] = tested on: A. baumannii (ATCC 19606); assay: Antimicrobial MIC, A. baumannii; type: cell-based, Acinetobacter baumannii; details: Acinetobacter baumannii, ATCC19606, A. baumannii (ATCC 19606); mean (n = 2)
Procedure: as §1

[5] = tested on: K. pneumoniae (ATCC 700603); assay: Antimicrobial MIC, K. pneumoniae; type: cell-based; details: Klebsiella pneumoniae, ATCC700603, mean (n = 2)
Procedure: as §1

[6] = tested on: C. neoformans (ATCC 208821); assay: Antifungal MIC, C. neoformans; type: cell-based, Cryptococcus neoformans; details: Cryptococcus neoformans, ATCC208821, C. neoformans (ATCC 208821); mean (n = 2)
Procedure: as §1

MRSA (ATCC 43300) = assay: Antimicrobial MIC, MRSA; type: cell-based, methicillin-resistant Staphylococcus aureus; details: Staphylococcus aureus, MRSA (ATCC 43300); mean (n = 2); read-out: MIC MRSA
Procedure: as §1

human red blood cells = assay: Hemolytic assay; type: cell-based; details: concentration at 10% hemolytic activity on human red blood cells; mean (n = 2)
Procedure: Hemolysis assays were conducted using the protocols previously reported.

Cytotoxicity assay = type: cell-based, human; details: human, HEK293 human embryonic kidney cells, concentration at 50% cytotoxicity on HEK293 cells; mean (n = 2)
Procedure: Cytotoxicity assays were conducted using the protocols previously reported.

E. coli (ATCC 25922) [7] = assay: Enhancement of erythromycin activity; type: cell-based, Escherichia coli; details: for Eryth/E.c: concentration required to restore erythromycin activity (combination MIC): erythromycin fixed at 10.9 µM (8 µg/mL), E. coli (ATCC 25922); for Eryth/E.c fold change: ratio between intrinsic MIC of test compound and combination MIC, erythromycin 10.9 µM, E. coli
Procedure: Restoring enhancer concentrations were determined using previously reported protocols.

E. coli (ATCC 25922) [8] = assay: Antimicrobial MIC, E. coli; type: cell-based, Escherichia coli; details: Escherichia coli, ATCC25922, E. coli (ATCC 25922); mean (n = 2)
Procedure: as §1

Row | MIC [1] [µM] | MIC (C. albicans (ATCC 90028)) [µM] | Dox/P.a: concentration required to restore doxycycline activity (combination MIC) [2] [µM] | MIC [3] [µM] | MIC [4] [µM] | MIC [5] [µM] | MIC [6] [µM] | MIC (MRSA (ATCC 43300)) [µM] | melting point [°C] | Eryth/E.c: concentration required to restore erythromycin activity (combination MIC) (E. coli (ATCC 25922) [7]) [µM] | MIC (E. coli (ATCC 25922) [8]) [µM] | SMILES | Dox/P.a fold change [2] [fold] | Hemolysis HC10 (human red blood cells) | IC50 (Cytotoxicity assay) [µM] | Eryth/E.c fold change (E. coli (ATCC 25922) [7]) [fold]
1 | 300 | > 32.4 | 300 | 300 | > 32.4 | > 32.4 | > 32.4 | 0.506 | 182 to 184 | 300 | 300 | O=C(CCC(=O)Nc1ccc(-c2ccccc2)cc1)NCCCNCCCCCCCCNCCCNC(=O)CCC(=O)Nc1ccc(-c2ccccc2)cc1.O=C(O)C(F)(F)F.O=C(O)C(F)(F)F [Compound 21d, N^1,N^8-Bis(3-(4-([1,1’-biphenyl]-4-ylamino)-4-oxobutanamido)propyl)octane-1,8-diaminium 2,2,2-trifluoroacetate] | 1 | >32.4 µM | > 32.4 | 1
2 | – | – | – | – | – | – | – | – | 165 to 167 | – | – | O=C(O)CCC(=O)Nc1cccc2ccccc12 [Compound 9, 4-(Naphthalen-1-ylamino)-4-oxobutanoic Acid] | – | – | – | –
3 | 300 | > 33.3 | 300 | 300 | > 33.3 | > 33.3 | > 33.3 | 2.08 | 200 to 202 | 300 | 300 | O=C(CCC(=O)Nc1ccc(-c2ccccc2)cc1)NCCCNCCCCCCNCCCNC(=O)CCC(=O)Nc1ccc(-c2ccccc2)cc1.O=C(O)C(F)(F)F.O=C(O)C(F)(F)F [Compound 21b, N^1,N^6-Bis(3-(4-([1,1’-biphenyl]-4-ylamino)-4-oxobutanamido)propyl)hexane-1,6-diaminium 2,2,2-trifluoroacetate] | 1 | >33.3 µM | > 33.3 | 1
4 | 300 | 31.5 | 300 | 300 | > 31.5 | > 31.5 | 15.7 | 0.246 | 184 to 186 | 300 | 300 | O=C(CCC(=O)Nc1ccc(-c2ccccc2)cc1)NCCCNCCCCCCCCCCNCCCNC(=O)CCC(=O)Nc1ccc(-c2ccccc2)cc1.O=C(O)C(F)(F)F.O=C(O)C(F)(F)F [Compound 21e, N^1,N^10-Bis(3-(4-([1,1’-biphenyl]-4-ylamino)-4-oxobutanamido)propyl)decane-1,10-diaminium 2,2,2-trifluoroacetate] | 1 | 6.3 µM and 6.32 µM | > 31.5 | 1
5 | 677 | > 43.3 | 271 | 677 | > 43.3 | > 43.3 | > 43.3 | > 43.3 | 238 to 239 | 67.7 | 677 | O=C(NCCCNCCCCNCCCNC(=O)c1cccc2ccccc12)c1cccc2ccccc12.O=C(O)C(F)(F)F.O=C(O)C(F)(F)F [Compound 17a, N^1,N^4-Bis(3-(1-naphthamido)propyl)butane-1,4-diaminium 2,2,2-trifluoroacetate] | 2.5 | – | – | 10
6 | – | – | – | – | – | – | – | – | > 230 | – | – | O=C(O)CCC(=O)Nc1ccc(-c2ccccc2)cc1 [Compound 12, 4-([1,1’-Biphenyl]-4-ylamino)-4-oxobutanoic Acid] | – | – | – | –
7 | 200 | > 41.7 | 12.5 | 200 | > 41.7 | > 41.7 | > 41.7 | > 41.7 | 225 to 227 | 100 | 200 | O=C(NCCCNCCCCCCNCCCNC(=O)c1cccc2ccccc12)c1cccc2ccccc12.O=C(O)C(F)(F)F.O=C(O)C(F)(F)F [Compound 17b, N^1,N^6-Bis(3-(1-naphthamido)propyl)hexane-1,6-diaminium 2,2,2-trifluoroacetate] | 16 | >41.7 µM | > 41.7 | 2
8 | 300 | > 34.3 | 300 | 300 | > 34.3 | > 34.3 | > 34.3 | 0.268 | 203 to 205 | 300 | 300 | O=C(CCC(=O)Nc1ccc(-c2ccccc2)cc1)NCCCNCCCCNCCCNC(=O)CCC(=O)Nc1ccc(-c2ccccc2)cc1.O=C(O)C(F)(F)F.O=C(O)C(F)(F)F [Compound 21a, N^1,N^4-Bis(3-(4-([1,1’-biphenyl]-4-ylamino)-4-oxobutanamido)propyl)butane-1,4-diaminium 2,2,2-trifluoroacetate] | 1 | 31.4 µM | > 34.3 | 1
9 | 25 | > 34.7 | 6.25 | > 200 | > 34.7 | > 34.7 | ≤ 0.27 | 2.2 | – | 12.5 | 25 | O=C(CCC(=O)Nc1ccc2ccccc2c1)NCCCNCCCCCCCNCCCNC(=O)CCC(=O)Nc1ccc2ccccc2c1.O=C(O)C(F)(F)F.O=C(O)C(F)(F)F [Compound 20c, N^1,N^7-Bis(3-(4-(naphthalen-2-ylamino)-4-oxobutanamido)propyl)heptane-1,7-diaminium 2,2,2-trifluoroacetate] | – | >34.7 µM | > 34.7 | 2
10 | > 200 | > 34.7 | 12.5 | 200 | > 34.7 | > 34.7 | > 34.7 | > 34.7 | – | 200 | 200 | O=C(CCC(=O)Nc1cccc2ccccc12)NCCCNCCCCCCCNCCCNC(=O)CCC(=O)Nc1cccc2ccccc12.O=C(O)C(F)(F)F.O=C(O)C(F)(F)F [Compound 18c, N^1,N^7-Bis(3-(4-(naphthalen-1-ylamino)-4-oxobutanamido)propyl)heptane-1,7-diaminium 2,2,2-trifluoroacetate] | 16 | >34.7 µM | > 34.7 | 1
